According to patent publication US20090041820A1, “Functional polymer compositions” (priority 2007, published 2009):

Assays:
[1] = PAO/ester/triclosan migration from PP strips (weight loss, toluene wash, surface observation); type: physicochemical; settings: fast cooled PP strips
Experimental: Preparation of sample 24892-114-0 to 7: The polypropylene described above (85% by weight) was melt blended in a mixer with 15 wt % triclosan stock solution as prepared in Table 2. The mixed polymer was then compression molded into 4″×4″ squares with less than 1 mm thickness. Two methods were used to prepare the PP strip with very different results. One method includes fast cooling after the compression molding (quench sample with a 7° C. cooling surface). The sample strip had PAO fluid on surface indicating fast PAO migration after a few hours at room temperature. The other method included slow cooling after the compression molding (cool sample in ambient air, 23° C.). Sample strip appeared very dry with no apparent PAO fluid on surface. When this sample was put into 70° C. oven, slight oiliness was observed on the surface.
Table 4 below depicts the PAO/ester/Triclosan migration from the PP strips as measured by weight loss in 7 days.
For fast cooled PP strips, there was up to 1.8 wt % weight loss by toluene wash due to PAO/ester/Triclosan migration to the surface.

[2] = Solubility of triclosan in PAO carrier fluid; type: physicochemical; settings: PAO without ester

## Oc1cc(Cl)ccc1Oc1ccc(Cl)cc1Cl [Triclosan]
[1]
  migration to the surface, confirmed by GC analysis of the toluene wash: migrated to the surface
[2]
  solubility in PAO alone: low solubility
